Laboratory results: article PMC11285368, “Chasing Red Herrings: Palladium Metal Salt Impurities Feigning KRAS Activity in Biochemical Assays” (Journal of Medicinal Chemistry, 2024)
Like-named read-outs stand apart in the source and are kept apart here.

How the values were obtained:
Type in all cases: biochemical
KRAS = KRAS (Homo sapiens, UniProt P01116); experiment: KRAS TR-FRET (MIIS list); conditions: read-out: Target #1 IC50
Description: (§1) Metal salt solutions for the metal ion interference set (MIIS) were prepared as 10 mM stock solutions in DMSO (see Table 3). All metal salts used have been purchased at highest industrial grade.

SOS1 = target: T1, SOS1 (Homo sapiens, UniProt Q07889); experiment: SOS1 TR-FRET; conditions: read-out: Target #1 IC50
T1 sequence (Q07889 1-1333): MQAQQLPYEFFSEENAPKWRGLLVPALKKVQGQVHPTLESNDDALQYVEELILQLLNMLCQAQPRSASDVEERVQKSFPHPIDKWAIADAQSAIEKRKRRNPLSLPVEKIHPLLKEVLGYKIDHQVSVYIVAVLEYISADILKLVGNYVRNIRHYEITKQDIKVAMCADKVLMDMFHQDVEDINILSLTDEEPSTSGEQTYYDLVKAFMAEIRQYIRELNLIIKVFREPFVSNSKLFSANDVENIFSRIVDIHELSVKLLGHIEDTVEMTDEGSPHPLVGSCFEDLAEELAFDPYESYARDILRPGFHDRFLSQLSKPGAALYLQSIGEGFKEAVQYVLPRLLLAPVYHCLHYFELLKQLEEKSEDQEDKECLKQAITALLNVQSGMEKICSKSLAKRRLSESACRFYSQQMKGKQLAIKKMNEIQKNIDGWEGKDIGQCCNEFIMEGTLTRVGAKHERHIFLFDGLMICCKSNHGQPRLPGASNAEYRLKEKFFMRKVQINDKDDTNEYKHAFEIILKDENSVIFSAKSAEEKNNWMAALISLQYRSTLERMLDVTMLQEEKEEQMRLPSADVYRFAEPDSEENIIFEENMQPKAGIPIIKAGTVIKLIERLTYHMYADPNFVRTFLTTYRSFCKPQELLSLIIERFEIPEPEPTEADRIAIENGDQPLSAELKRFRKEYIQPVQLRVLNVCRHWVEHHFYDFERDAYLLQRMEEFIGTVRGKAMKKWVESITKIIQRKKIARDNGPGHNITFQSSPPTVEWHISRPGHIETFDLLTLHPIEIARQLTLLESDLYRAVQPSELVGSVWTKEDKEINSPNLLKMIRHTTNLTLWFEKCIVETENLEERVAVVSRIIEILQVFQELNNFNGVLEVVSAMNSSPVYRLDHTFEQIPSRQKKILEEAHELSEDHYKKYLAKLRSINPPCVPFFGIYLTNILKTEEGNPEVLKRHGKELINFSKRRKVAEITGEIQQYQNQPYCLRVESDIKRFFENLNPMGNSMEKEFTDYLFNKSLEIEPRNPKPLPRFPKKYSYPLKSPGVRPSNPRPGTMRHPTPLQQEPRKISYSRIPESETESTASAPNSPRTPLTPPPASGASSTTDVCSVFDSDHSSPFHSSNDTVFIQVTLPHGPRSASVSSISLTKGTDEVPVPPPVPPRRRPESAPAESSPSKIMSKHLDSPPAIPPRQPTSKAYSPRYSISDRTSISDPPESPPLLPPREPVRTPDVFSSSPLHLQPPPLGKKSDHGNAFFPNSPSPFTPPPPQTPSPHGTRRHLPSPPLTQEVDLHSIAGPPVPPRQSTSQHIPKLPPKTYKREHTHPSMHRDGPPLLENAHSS
Description: as §1

KRAS^G12D(GTP)::CRAF [1] = target: T2, KRAS^G12D(GTP)::CRAF (Homo sapiens, UniProt P01116, G12D); experiment: KRAS^G12D(GTP)::CRAF AlphaScreen
T2 construct: KRAS^G12D 1–169, N-terminal 6His-tag, C-terminal avi-tag (Xtal BioStructures, Inc.); 6His (N); purchased Xtal BioStructures, Inc. (KRAS); Viva Biotech Ltd. (CRAF)
T2 sequence (P01116 1-169 isoform P01116-2 G12D): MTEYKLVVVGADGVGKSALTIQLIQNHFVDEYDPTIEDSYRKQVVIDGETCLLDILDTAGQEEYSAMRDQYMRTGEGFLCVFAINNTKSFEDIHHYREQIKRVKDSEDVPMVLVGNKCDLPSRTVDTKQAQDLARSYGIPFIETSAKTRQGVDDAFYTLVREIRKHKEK
Description: The proteins have been used at these given final assay concentrations:
Test compounds dissolved in DMSO were dispensed onto assay plates (Proxiplate 384 PLUS, white, PerkinElmer; 6008289) using an Access Labcyte Workstation with the Labcyte Echo 555. For the chosen highest assay concentration of 100 μM, 150 nl of compound solution were transferred from a 10 mM DMSO compound stock solution. A series of 11 5-fold dilutions per compound was transferred to the assay plate, and compound dilutions were tested in duplicates. DMSO was added as backfill to a total volume of 150 nl. The assay was run on a fully automated robotic system in a darkened room below 100 Lux. […] After 60 min incubation time 5 μL of AlphaScreen bead mix in assay buffer were added into columns 1–23. Bead mix consisted of AlphaLISA Glutathione Acceptor Beads (PerkinElmer, cat. no. AL109) and Alpha-Screen Streptavidin Donor Beads (perkinElmer cat. no. 6760002) in assay buffer at a final assay concentration of 10 μg/mL each. Plates were kept at room temperature in a darkened incubator. After an additional 60 min incubation time the signal was measured on a PerkinElmer Envision HTS Multilabel Reader using the AlphaScreen specs from PerkinElmer.
(§2) IC50 values were calculated and analyzed with Boehringer Ingelheim’s MEGALAB IC50 application using a 4 parametric logistic model.

biotinylated GST = biotinylated GST (Schistosoma japonicum, UniProt P08515); experiment: Control assay (AlphaScreen Shortcut)
Chain of biotinylated GST (P08515 whole entry): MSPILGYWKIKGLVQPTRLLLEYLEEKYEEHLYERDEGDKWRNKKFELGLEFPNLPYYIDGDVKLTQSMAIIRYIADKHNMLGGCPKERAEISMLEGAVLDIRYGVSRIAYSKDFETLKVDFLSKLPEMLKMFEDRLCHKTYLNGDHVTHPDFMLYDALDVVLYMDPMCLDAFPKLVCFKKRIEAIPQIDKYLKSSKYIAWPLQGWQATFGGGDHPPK
Description: This assay was developed to identify compounds that interfere with the assay format using AlphaLISA Glutathione Acceptor and AlphaScreen Streptavidin Donor beads. The assay was performed as described above using biotinylated GST as bridging reagent instead of KRAS^G12D and CRAF mix.

KRAS^G12D(GTP)::CRAF [2] = target: T2, KRAS^G12D(GTP)::CRAF; experiment: KRAS^G12D(GTP)::CRAF TR-FRET; conditions: Fluorescence; GST-CRAF^(51–131) and KRAS^G12D(1–169)-biotin
Description: Plates were kept at room temperature in a darkened incubator.
as §2

Chain of KRAS (P01116 1-188 isoform P01116-2): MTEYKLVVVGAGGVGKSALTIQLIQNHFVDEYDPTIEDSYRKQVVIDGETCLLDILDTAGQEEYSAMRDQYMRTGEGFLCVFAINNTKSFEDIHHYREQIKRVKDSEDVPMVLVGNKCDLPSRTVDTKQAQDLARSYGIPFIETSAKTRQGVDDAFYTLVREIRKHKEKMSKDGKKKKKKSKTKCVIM

Compound | IC50 (SOS1) | further results
CC(=O)[O-].[Ag+] [Ag (CH 3COO), Silver acetate] | < 1 µM | IC50 (KRAS): < 1 µM
O=[N+]([O-])[O-].O=[N+]([O-])[O-].O=[N+]([O-])[O-].[Al+3] [Al(NO3)3, Aluminum nitrate] | > 10 µM | 
[Cl][Au]([Cl])[Cl] [AuCl3, Gold(III) chloride] | < 1 µM | IC50 (KRAS): < 1 µM
[Cl-].[Cl-].[Co+2] [CoCl2, Cobalt(II) chloride] | > 10 µM | 
[Cl][Cu][Cl] [CuCl2, Copper(II) chloride] | > 10 µM | 
[Cl][Fe][Cl] [FeCl2, Iron(II) chloride] | 1 to 10 µM | 
[Cl][Fe]([Cl])[Cl] [FeCl3, Iron(III) chloride] | 1 to 10 µM | 
[Cl-].[Cl-].[Mg+2] [MgCl2, Magnesium chloride] | > 10 µM | 
[Cl][Mn][Cl] [MnCl2, Manganese(II) chloride] | > 10 µM | 
[Cl][Ni][Cl] [NiCl2, Nickel(II) chloride] | > 10 µM | 
[Cl][Pd][Cl] [PdCl2, Palladium(II) chloride] | 1 to 10 µM | IC50 (KRAS^G12D(GTP)::CRAF [1]; Batch 1, read-out: KRAS^G12D(GTP)::CRAF AlphaScreen IC50): 0.7 ± 0.2 µM; IC50 (KRAS^G12D(GTP)::CRAF [1]; Luminescence, GST-CRAF^(1–303) and KRAS^G12D(1–169)-biotin, read-out: IC50, KRAS^G12D(GTP)::CRAF AlphaScreen): 0.7 ± 0.2 µM; IC50 (biotinylated GST; Batch 1, read-out: Control assay IC50): 5.8 ± 0.7 µM; IC50 (biotinylated GST; Luminescence, biotinylated GST, read-out: IC50, Control assay): 5.8 ± 0.7 µM; IC50 (KRAS^G12D(GTP)::CRAF [2]): 40.5 ± 19.2 µM
[Cl][Sn][Cl] [SnCl2, Tin(II) chloride] | 1 to 10 µM | 
[Cl-].[Cl-].[Zn+2] [ZnCl2, Zinc(II) chloride] | > 10 µM | 
